Reference: article PMC8956739, “A synthetic lipopeptide targeting top-priority multidrug-resistant Gram-negative pathogens” (Nature Communications, 2022)
Converted amounts (≈) assume the structure as drawn. Where two headings read alike, the source gives them in different places. Residues, ends and D or L forms follow the SMILES beside them.

What was measured:
P. aeruginosa PAM1626 = assay: Efflux inhibition assay (Leu-Nap hydrolysis), efflux-deficient strain; format: cell-based, Pseudomonas aeruginosa
Experimental: (§1) Bacterial strains were seeded in 50 mL of Luria-Bertani (LB) broth at OD600 0.05 and grown at 37 °C for 3-4 h until an OD600 of 0.6–0.8 was achieved. Bacterial cells were washed twice with 25 mL of buffer (50 mM sodium phosphate, 0.5% glucose, pH 7, with or without 1 mM Mg^2+), resuspended in 10 mL of the buffer, and then adjusted to an OD600 of 0.4. […] Bacterial suspension (50 μL, OD600 0.4) in buffer was added to the lipopeptide solutions and the rate of substrate hydrolysis was measured at 490 nm.
Activity of F365 and polymyxin B in the efflux inhibition assay.
One of the consequences of disruption/permeabilization of the cytoplasmic membrane by polymyxins is the dissipation of the proton gradient across the cytoplasmic membrane. […]
these compounds are expected to inhibit proton-dependent transport activity across the cytoplasmic membrane including efflux. Efflux activity and its inhibition by F365 was assessed by examining the rates of hydrolysis of a fluorogenic substrate of efflux pumps, Leu-Nap, by intact cells of P. aeruginosa. For these experiments we used two strains of P. aeruginosa, PAM1723 and PAM1626. PAM1723 overexpresses the efflux pump MexAB-OprM and PAM1626 lacks this pump as well as several other pumps that extrude Leu-Nap. […] The rate of production of β-naphthylamine (recorded as an increase in fluorescence) is limited by the rate of entry of Leu-Nap into the cells. […]

[1] = in vivo
Experimental: The plasma pharmacokinetic profiles of F365 and polymyxin B were assessed in Swiss mice (female, 7-week-old, 22–28 g) after a single intraperitoneal dose (5 mg/kg, n = 3). Blood samples were collected at various time points over 24 h post dosing for analysis. The plasma pharmacokinetic profiles of F365 (n = 5) and polymyxin B (1 mg/kg, n = 11) in Sprague-Dawley rats (male, 10-week-old, 280 to 330 g) were assessed after intravenous administration (1 min) of F365 and polymyxin B via an indwelling jugular vein cannula. Blood samples (~0.3 mL) were collected via an indwelling carotid artery cannula at various time points over 24 h post dosing. Urine samples were collected at 4 °C using a metabolic cage during the period between 0 and 24 h post dosing. Concentrations of F365 and polymyxin B in plasma and urine samples were determined using LC-MS/MS and pharmacokinetic analysis was conducted using WinNonlin (Pharsight Corp., Mountain View, CA). The ELF pharmacokinetic profiles of F365 and polymyxin B was determined in neutropenic Swiss mice (female, 7-week-old, 22–28 g) after subcutaneous injection (40 mg/kg, n = 3). Bronchoalveolar lavage (BAL) samples were collected at various time points over 24 h post dosing from the cannulated trachea using Milli-Q water as BAL washing media. The average volume of ELF in mice was calculated by the ratio of urea concentrations in plasma and BAL samples. Concentrations of F365 and polymyxin B in plasma and BAL were analyzed by LC-MS/MS. Pharmacokinetic parameters were calculated using a non-compartment model with WinNonlin. For mouse, rat, and human plasma protein binding of F365 and polymyxin B, pooled plasma samples (n = 3) from each species were spiked with F365 or polymyxin B. The spiked plasma samples were subjected to ultrafiltration and the corresponding filtrates were analyzed by LC-MS/MS to determine the concentration of F365 and polymyxin B and the protein binding in each species.

P. aeruginosa PAM2035 = format: cell-based, Pseudomonas aeruginosa; settings: nitrocefin hydrolysis, without Mg2+
Experimental: as §1
Activity of F365 and polymyxin B in the outer membrane permeabilization assay.
The outer and inner membranes of gram-negative bacteria are the sites of interaction and action of polymyxin antibiotics, respectively. These polycationic compounds bind to phosphate residues of lipid A and displace the magnesium and calcium ions that cross-bridge adjacent lipid A molecules thereby stabilizing the outer membrane. […]
as the main mechanism of action by polymyxin B and colistin. The outer membrane-permeabilizing effect of F365 at a wide range of concentrations was assessed by examining the rates of hydrolysis of a chromogenic β-lactam, nitrocefin, by intact cells of Pseudomonas aeruginosa. […]

A. baumannii FADDI-AB156 = assay: MIC, polymyxin-resistant isolate; format: cell-based, Acinetobacter baumannii; settings: carbapenem-resistant
Experimental: MICs were determined in cation-adjusted Mueller–Hinton broth (CaMHB) by the broth micro-dilution method against ATCC strains and clinical isolates. MICs in the presence of Survanta® were determined as described above against P. aeruginosa ATCC 27853. In the 100 μL of fresh CaMHB containing polymyxins, 10% Survanta® (v/v, 2.5 mg/mL phospholipids) was added. MICs in the presence and absence of Survanta® were compared to determine the effect of binding to lung surfactant on the antibacterial activity of polymyxins.

Compound | effect on the rate of Leu-Nap hydrolysis (P. aeruginosa PAM1626) | AUC(0-inf) ([1]; mouse, sc, 40 mg/kg) [ng·h/mL] | Cmax in ELF relative to polymyxin B ([1]; mouse, sc, 40 mg/kg) [fold] | Free AUC(0-∞) in ELF (estimated fAUCELF) ([1]; mouse, sc, 40 mg/kg) [ng·h/mL] | Total CL ([1]; mouse, sc, 40 mg/kg) [mL/min/kg] | half-life ([1]; mouse, sc, 40 mg/kg) [h] | urinary recovery relative to polymyxin B ([1]; rat) [fold] | AUC(0-inf) ([1]; rat, iv, 1 mg/kg) [ng·h/mL] | clearance ([1]; rat, iv, 1 mg/kg) [mL/min/kg] | half-life ([1]; rat, iv, 1 mg/kg) [h] | IC50 for membrane permeabilization (P. aeruginosa PAM2035) [µg/mL] | MIC A. baumannii FADDI-AB156 (A. baumannii FADDI-AB156) [µg/mL] | AUC(0-∞) in ELF ([1]; mouse, sc, 40 mg/kg) [ng·h/mL]
CC[C@@H]1NC(=O)[C@@H](CC(C)C)NC(=O)[C@H](CCN)NC(=O)[C@@H](NC(=O)[C@H](CN)NC(=O)[C@@H](NC(=O)[C@H](CCN)NC(=O)c2ccc(Cl)cc2Cl)[C@@H](C)O)CCNC(=O)[C@H]([C@@H](C)O)NC(=O)[C@H](CCN)NC(=O)[C@H](CCN)NC1=O [Lipopeptide F365] (HELM PEPTIDE1{[O=C(c1ccc(Cl)cc1Cl)[*:2]].[Dab].T.[NC[C@H](N[*:1])C(=O)[*:2]].[Dab].[Dab].[dL].[Abu].[Dab].[Dab].T}$PEPTIDE1,PEPTIDE1,5:R3-11:R2$$$V2.0) | no effect | 86200 | 3 | 86200 | 7.67 | 3.39 | > 4 | 2400 | 7.67 | 0.91 | 0.73 ± 0.07 | 4 (≈ 3.45 µM) | –
Polymyxin B [reference compound] | no effect | – | – | 10000 | 8.33 | 6.70 | – | – | – | 1.45 | 1.15 ± 0.22 | 8 | 80000
